Values quoted from earlier work as cited in patent publication US5639785A, “Methods for the treatment of baldness and gray hair using isoflavonoid derivatives” (priority 1995, dated 1997).
Where two headings read alike, the source gives them in different places.

Tests used:
[1] = system: patients with hair loss; conditions: after four months of treatment
[2] = system: LNCaP human prostate cancer cell line
[3] = system: Du-145 human prostate cancer cell line
[4] = system: HL60 human leukemia cells
[5] = target: r2 r2 ADH isozyme (alcohol dehydrogenase class I) (Homo sapiens, UniProt P00326, I350V/R272Q); conditions: competitive with respect to ethanol, uncompetitive with respect to NAD
[6] = target: r1 r1 ADH isozyme (alcohol dehydrogenase class I) (Homo sapiens, UniProt P00326); conditions: competitive with respect to ethanol, uncompetitive with respect to NAD
[7] = system: alcohol dehydrogenase (ADH) class I isozymes
[8] = system: Syrian Golden hamsters
[9] = target: T1, aldehyde dehydrogenase (ALDH) II and II of human mitochondria (Homo sapiens, UniProt P05091)
T1 sequence (P05091 18-517): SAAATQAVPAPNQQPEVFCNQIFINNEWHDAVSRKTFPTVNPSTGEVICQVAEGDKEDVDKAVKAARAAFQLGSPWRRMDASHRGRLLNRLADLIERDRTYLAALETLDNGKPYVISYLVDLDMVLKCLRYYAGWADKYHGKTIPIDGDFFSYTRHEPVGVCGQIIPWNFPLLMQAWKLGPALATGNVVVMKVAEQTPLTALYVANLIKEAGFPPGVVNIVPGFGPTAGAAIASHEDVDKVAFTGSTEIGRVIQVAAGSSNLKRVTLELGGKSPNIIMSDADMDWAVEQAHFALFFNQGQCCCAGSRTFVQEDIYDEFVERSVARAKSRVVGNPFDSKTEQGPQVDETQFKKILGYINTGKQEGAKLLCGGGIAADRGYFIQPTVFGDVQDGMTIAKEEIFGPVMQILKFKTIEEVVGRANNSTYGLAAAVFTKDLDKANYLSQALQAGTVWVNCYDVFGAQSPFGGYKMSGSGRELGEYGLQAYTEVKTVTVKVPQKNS

r2 r2 ADH isozyme (alcohol dehydrogenase class I), sequence (P00326 2-375 R272Q/I350V limits assumed): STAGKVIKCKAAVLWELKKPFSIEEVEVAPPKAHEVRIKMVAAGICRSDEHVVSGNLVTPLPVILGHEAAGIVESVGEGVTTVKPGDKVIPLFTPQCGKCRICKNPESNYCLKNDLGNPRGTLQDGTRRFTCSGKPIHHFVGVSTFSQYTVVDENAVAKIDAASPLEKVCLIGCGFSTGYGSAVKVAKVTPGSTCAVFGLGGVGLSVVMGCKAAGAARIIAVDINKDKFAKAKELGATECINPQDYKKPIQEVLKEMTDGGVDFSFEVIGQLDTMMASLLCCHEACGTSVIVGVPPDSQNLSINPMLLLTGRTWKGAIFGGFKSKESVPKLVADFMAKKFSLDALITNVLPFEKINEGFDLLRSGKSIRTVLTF
r1 r1 ADH isozyme (alcohol dehydrogenase class I), sequence (P00326 2-375 limits assumed): as the sequence (P00326 2-375 R272Q/I350V limits assumed) above, with Q271R, V349I counted along it

Compound	inhibition of serum and epidermal growth factor-stimulated growth [2]	inhibition of serum and epidermal growth factor-stimulated growth [3]	inhibition of ADH [7]	free choice ethanol intake ([8]; Syrian Golden hamsters)	other results
Nc1cc(N2CCCCC2)nc(N)[n+]1[O-] [Minoxidil]	–	–	–	–	patients who achieve minimal regrowth of hair [1]: approximately 25%
COc1ccc(-c2coc3cc(O)cc(O)c3c2=O)cc1 [biochanin A]	inhibited	inhibited	–	–	–
O=c1c(-c2ccc(O)cc2)coc2cc(O)ccc12 [daidzein, 7-hydroxy-3-(4-hydroxyphenyl)-4-H-1-benzopyranyl-4-one]	not	not	reversible inhibitors	suppressed	concentration that inhibited the growth of HL60 cells [4]: greater than 10 μg/ml; Ki [5]: ~1000 nM; Ki [6]: ~1000 nM; effect on body weight, water or food intake ([8]; hamster, in vivo): did not significantly affect
O=c1c(-c2ccc(O)cc2)coc2cc(O[C@@H]3O[C@H](CO)[C@@H](O)[C@H](O)[C@H]3O)ccc12 [daidzin]	–	–	did not inhibit	suppressed	effect on body weight, water or food intake ([8]; Syrian Golden hamsters): did not significantly affect; inhibition of ALDH [9]: potent inhibitor
O=c1c(-c2ccc(O)cc2)coc2cc(O)cc(O)c12 [genistein]	inhibited	inhibited	reversible inhibitors	–	–
